Counter-ions that a name gives are not always drawn.
Assay: Storage stability of reagent 7 and its Boc and salt forms
Format: physicochemical
Source text: The synthesis of reagent 7-salt is described in Scheme 1. The phenolic oxygen of Boc-protected NMT (N-methyltyramine) was deprotonated with NaH and treated with BrCF2CF2Br (Halon 2402) giving the bromide 4, which was converted to corresponding fluoroalkylsilane 5. […] For that reason, it was generated in situ from 7-salt by addition of base in all subsequent syntheses.

CNCCc1ccc(OC(F)(F)C(F)(F)I2OC(C)(C)c3ccccc32)cc1 [Reagent 7, 2-(4-(2-(3,3-Dimethyl-1λ^3-benzo[d][1,2]iodaoxol-1 (3H)-yl)-1,1,2,2-tetrafluoroethoxy)phenyl)-N-methylethan-1-amine]
storage stability (isolated deprotected reagent, stored in a freezer): decomposed rapidly

CN(CCc1ccc(OC(F)(F)C(F)(F)I2OC(C)(C)c3ccccc32)cc1)C(=O)OC(C)(C)C [Reagent 7-Boc, tert-Butyl (4-(2-(3,3-dimethyl-1λ^3-benzo[d][1,2]iodaoxol-1 (3H)-yl)-1,1,2,2-tetrafluoroethoxy)phenethyl)-(methyl)carbamate]
storage stability (brown oil, at −20° C.): stable for at least for six months

CNCCc1ccc(OC(F)(F)C(F)(F)I2OC(C)(C)c3ccccc32)cc1 [Reagent 7-salt, 3,3-Dimethyl-1-(1,1,2,2-tetrafluoro-2-(4-(2-(methylammonio)ethyl)phenoxy)ethyl)-2,3-dihydro-1H-1λ^3-benzo[d][1,2]iodaoxol-2-ium bis(trifluoroacetate)]
storage stability (crystalline, at room temperature): appeared stable
